Structures can show the parent of a compound that is named as a salt. Where two headings read alike, the source gives them in different places.
Tests used:
[1] = system: Mycobacterium smegmatis (Msm) strain ATCC 607; experiment: Two-dimensional checkerboard assay incorporating resazurin (REMA MIC) against Msm; assay type: cell-based; conditions: for MIC / MIC99: compound tested singly, read-out: MIC 99 singly; for MIC 99 fold reduction of anti-TB drug BDQ: BDQ in combination with the labelled EI; for MIC 99 fold reduction of anti-TB drug DOX: DOX in combination with the labelled EI; for FICI: synergy FICI ≤ 0.5; for MIC 99 fold reduction of anti-TB drug CFZ: CFZ in combination with the labelled EI
[2] = MTT cytotoxicity assay on Vero E6 cells; assay type: cell-based, African green monkey; conditions: African green monkey
Experimental: (§1) To determine the cytotoxicity of the compounds, Vero E6 cells (derived from the African green monkey kidney cells) were used and the MTT assay was performed as described by [Mosmann (1983)]. The Vero E6 cells were sourced from the American Type Culture Collection (ATCC, Manassas, Virginia, USA). The cells were maintained in Eagle’s Minimum Essential Medium (EMEM) supplemented with 10% fetal bovine serum (FBS; […] Panasonic, Japan) until 80% confluency was achieved, after which they were sub-cultured for cytotoxicity evaluation. At 80% confluency, cells were washed with phosphate-buffered saline (PBS; […] Trypsin activity was neutralized by adding supplemented EMEM. Cells were stained with trypan blue (Loba Chemie, India) and counted using a hemocytometer, and the cell suspensions were adjusted with supplemented EMEM to a final density of 1 × 10 ^5 cells/mL. […] After 24 hrs, the culture medium was replaced with fresh treatment medium with dose dilutions. […] After 48 hrs incubation, the media was removed, and the cells were rinsed with PBS (Sigma-Aldrich, USA). Fresh EMEM supplemented with MTT dye (5 mg […]/mL in PBS; Solarbio, China) was added and incubated for 4 hrs. The MTT solution was then discarded, and formazan crystals were completely dissolved with 100 μL of 100% DMSO (Finar Chemicals, India). Absorbance readings were taken at 570 nm using a microplate reader (Thermo Fisher Scientific, USA). All experiments were performed with three technical replicates. Cell viability (%) was determined using the formula: Cell viability(%)=[Absorbance of treated cells/Absorbance of untreated cells]×100 […]

Vero E6 cells = experiment: MTT cytotoxicity assay on Vero E6 cells; assay type: cell-based, African green monkey
Experimental: as §1

[3] = Mycolicibacterium smegmatis, ATCC607, Msm
[4] = Msm, labelled EI in combination with BDQ
[5] = Msm, labelled EI in combination with CFZ
[6] = Msm, labelled EI in combination with DOX
[7] = Vero E6 cells, 48 hrs exposure, MTT, read-out: CC 50

Row | Structure (SMILES) | FIC (anti-TB drug) ([1]; Msm, in combination with BER) | MIC 99 combination (anti-TB drug) ([1]; Msm, in combination with BER) [µM] | MIC 99 combination (anti-TB drug) ([1]; Msm, in combination with LYO) [µM] | FIC (anti-TB drug) ([1]; Msm, in combination with LYO-3) | MIC 99 combination (anti-TB drug) ([1]; Msm, in combination with LYO-3) [µM] | FIC (anti-TB drug) ([1]; Msm, in combination with PIP) | MIC 99 combination (anti-TB drug) ([1]; Msm, in combination with PIP) [µM] | FIC (anti-TB drug) ([1]; Msm, in combination with RES) | MIC 99 combination (anti-TB drug) ([1]; Msm, in combination with RES) [µM] | MIC99 [1, 3] [µM] | MIC 99 fold reduction of anti-TB drug BDQ ([1]; Msm) [fold] | MIC 99 fold reduction of anti-TB drug DOX ([1]; Msm) [fold] | FIC (EI) ([1]; Msm, in combination with BDQ) | MIC 99 combination (EI) ([1]; Msm, in combination with BDQ) [µM] | MIC 99 combination (EI) ([1]; Msm, in combination with CFZ) [µM] | MIC 99 combination (EI) ([1]; Msm, in combination with DOX) [µM] | FICI [1, 4] | FICI [1, 5] | FICI [1, 6] | FIC (EI) ([1]; Msm, in combination with CFZ) | also measured
1 | COc1nc2ccc(Br)cc2cc1[C@@H](c1ccccc1)[C@@](O)(CCN(C)C)c1cccc2ccccc12 [BDQ, bedaquiline fumarate] | 0.102 | 0.04 | 0.09 | 0.05 | 0.04 | 1 | 0.78 | 0.5 | 0.39 | 0.78 |  |  |  |  |  |  |  |  |  |  | MIC ([1]; Msm): 0.39 µM
2 | COc1ccc2cc3[n+](cc2c1OC)CCc1cc2c(cc1-3)OCO2 [BER, Berberine chloride] |  |  |  |  |  |  |  |  |  | 110 | 10 | 16 | 0.125 | 27.62 | 53.99 | 53.99 | 0.23 | 2 | 0.31 |  | MIC [1, 3]: 221 µM; CC50 at 48 h [2]: 362 µM
3 | CC(C)/N=c1\cc2n(-c3ccc(Cl)cc3)c3ccccc3nc-2cc1Nc1ccc(Cl)cc1 [CFZ, clofazimine] | 1 | 0.08 | 0.08 | 1 | 0.08 | 0.12 | 0.01 | 0.25 | 0.02 | 0.08 |  |  |  |  |  |  |  |  |  |  | FIC (anti-TB drug) ([1]; Msm, in combination with LYO): 1
4 | C[C@H]1c2cccc(O)c2C(=O)C2=C(O)[C@]3(O)C(=O)C(C(N)=O)=C(O)[C@@H](N(C)C)[C@@H]3[C@@H](O)[C@@H]21 [DOX, doxycycline hyclate] | 0.063 | 2.25 | 2.25 | 0.063 | 2.25 | 0.063 | 2.25 | 0.031 | 1.12 | 36 |  |  |  |  |  |  |  |  |  |  | FIC (anti-TB drug) ([1]; Msm, in combination with LYO): 0.063
5 | COc1cc(C2c3c(cc(OC)c(O)c3OC)CC(CO)C2CO)cc(OC)c1O (centres unmarked) [LYO, lyoniresinol] |  |  |  |  |  |  |  |  |  | 200 | 8 | 16 | 0.125 | 25 | 200 | 25 | 0.18 | 2 | 0.19 | 1 | FIC (EI) ([1]; Msm, in combination with DOX): 0.125; CC50 at 48 h [2, 7]: 318 µM
6 | COc1cc([C@H]2c3c(cc(OC)c(O)c3OC)C[C@@H](CO)[C@@H]2CO[C@@H]2O[C@H](CO)[C@@H](O)[C@H](O)[C@H]2O)cc(OC)c1O [LYO-3, (+)-lyoniresinol-3-Alpha-O-Beta-D-glucopyranoside] |  |  |  |  |  |  |  |  |  | 100 | 20 | 16 | 0.25 | 24.99 | 99.99 | 25 | 0.3 | 2 | 0.21 | 1 | FIC (EI) ([1]; Msm, in combination with DOX): 0.25; CC50 at 48 h [2, 7]: 604 µM; viability at 48 h ([2]; Vero E6 cells, even at higher concentrations, read-out: Cell viability): > 50%
7 | O=C(/C=C/C=C/c1ccc2c(c1)OCO2)N1CCCCC1 [PIP, piperine] |  |  |  |  |  |  |  |  |  | 120 |  | 16 | 1 | 119.99 | 29.99 | 29.99 | 2 | 0.37 |  | 0.25 | MIC 99 fold reduction of anti-TB drug CFZ ([1]; Msm): 8 fold; FIC (EI) ([1]; Msm, in combination with DOX): 0.25; CC50 at 48 h [2, 7]: 92.5 µM
8 | COC(=O)[C@H]1[C@H]2C[C@@H]3c4[nH]c5cc(OC)ccc5c4CCN3C[C@H]2C[C@@H](OC(=O)c2cc(OC)c(OC)c(OC)c2)[C@@H]1OC [RES, reserpine] |  |  |  |  |  |  |  |  |  | > 2240 | 2 | 32 |  | >2239.3 | >2239.3 |  |  |  |  |  | MIC 99 fold reduction of anti-TB drug CFZ ([1]; Msm): 4 fold; MIC [1, 3]: > 2240 µM; Cytotoxicity (in words) (Vero E6 cells): strong cytotoxicity at low micromolar concentrations
